Data from US7038049B2, “Haloanilino quinazolines and therapeutic use thereof” (Parker Hughes Institute, priority 1999, dated 2006).

What was measured:
[1] = system: NALM-6 human leukemia cells; test: MTT cytotoxicity assay, NALM-6; type: cell-based; conditions: Homo sapiens
Experimental: (§1) The cytotoxicity assay of various compounds against human tumor cell lines was performed using the MTT (3-[4,5-dimethylthiazol-2-yl]-2,5-diphenyl tetrazolium bromide) assay (Boehringer Mannheim Corp., Indianapolis, Ind.). Briefly, exponentially growing tumor cells were seeded into a 96-well plate at a density of 2.5×10^4 cells/well and incubated for 36 hours at 37° C. prior to drug exposure. On the day of treatment, culture medium was carefully aspirated from the wells and replaced with fresh medium containing the quinazoline compounds at concentrations ranging from 0.1 to 250 μM. Triplicate wells were used for each treatment.
(§2) Human cell lines were obtained from American Type Culture Collection (Rockville, Md.) and maintained as a continuous cell line in Dulbecco's modified Eagles' medium supplemented with 10% fetal bovine serum and antibiotics. Cells used in this study include human leukemia cells (NALM-6 and MOLT-3), human breast cancer cells ([…]), human prostate cancer cells (PC3), and human brain tumor cells (U373).
(§3) The cells were incubated with the various compounds for 24–36 hours at 37° C. in a humidified 5% CO2 atmosphere. To each well, 10 μl of MTT (0.5 mg/ml final concentration) was added and the plates were incubated at 37° C. for 4 hours to allow MTT to form formazan crystals by reacting with metabolically active cells. The formazan crystals were solubilized overnight at 37° C. in a solution containing 10% SDS in 0.01 M HCl. The absorbance of each well was measured in a microplate reader (Labsystems) at 540 nm and a reference wavelength of 690 nm. To translate the OD 540 values into the number of live cells in each well, the OD 540 values were compared to those on standard OD 540—versus—cell number curves generated for each cell line. The percent survival was calculated using the formula:
(§4) [formula] The IC50 values were calculated by non-linear regression analysis. Detection of Apoptosis

[2] = system: U373 human brain tumor cells; test: MTT cytotoxicity assay, U373; type: cell-based; conditions: Homo sapiens, U373 MG, Table 5, fluoro-substituted, value ± spread
Experimental: as §1, §2, §3, §4

[3] = system: MOLT-3 human leukemia cells; test: MTT cytotoxicity assay, MOLT-3; type: cell-based; conditions: Homo sapiens
Experimental: as §1, §2, §3, §4

[4] = system: BT20 human breast cancer cells; test: MTT cytotoxicity assay, BT20; type: cell-based; conditions: Homo sapiens
Experimental: as §1, §2, §3, §4

[5] = system: PC3 human prostate cancer cells; test: MTT cytotoxicity assay, PC3; type: cell-based; conditions: Table 5, fluoro-substituted, value ± spread
Experimental: as §1, §2, §3, §4

[6] = system: PC3 cells; test: TUNEL apoptosis assay, PC3; type: cell-based, human; conditions: 24 hours incubation, FIG. 3
Experimental: Exponentially growing cells were seeded in 6-well tissue culture plates at a density of 50×10^4 cells/well and cultured for 36 hours at 37° C. in a humidified 5% CO2 atmosphere. The supernatant culture medium was carefully aspirated and replaced with fresh medium containing unconjugated EGF or EGF-P154 at a concentration of 10, 25, or 50 μg/ml. After a 36 hour incubation at 37° C. in a humidified 5% CO2 incubator, the supernatants were carefully aspirated and the cells were treated for 1–2 minutes with 0.1% trypsin. The detached cells were collected into a 15 ml centrifuge tube, washed with medium and pelleted by centrifugation at 1000 rpm for 5 minutes. Cells were resuspended in 50 μl of PBS, transferred to poly-L-lysine coated coverslips and allowed to attach for 15 minutes. The cells were washed once with PBS and incubated with equilibration buffer for 10 minutes at room temperature. […]
The cells were incubated with HI-P353 or HI-P219 for 24 hours, fixed, permeabilized, and visualized for DNA degradation in a TUNEL assay using digoxigenin-UTP-labeling kit. In the color photographs, red fluorescence represents nuclei stained with propidium iodide. […]

[7] = NALM-6, Table 5, fluoro-substituted, value ± spread
[8] = MOLT-3, Table 5, fluoro-substituted, value ± spread
[9] = BT-20, Table 5, fluoro-substituted, value ± spread

| Structure (SMILES) | IC50 [1, 7] [µM] | IC50 [2] [µM] | IC50 [3, 8] [µM] | IC50 [4, 9] [µM] | IC50 [5] [µM] | IC50 ([1]; NALM-6, Table 1, bromo substituted, 24–36 hours) [µM] | IC50 ([3]; MOLT-3, Table 1, bromo substituted, 24–36 hours) [µM] | IC50 ([4]; BT-20, Table 1, bromo substituted, 24–36 hours) [µM] | Induction of apoptosis (TUNEL) [6] |
| --- | --- | --- | --- | --- | --- | --- | --- | --- | --- |
| COc1cc2ncnc(Nc3c(F)c(F)c(Br)c(F)c3F)c2cc1OC [HI-P144, 4-(2′,3′,5′,6′-tetrafluoro-4′-bromophenyl)amino-6,7-dimethoxyquinazoline] | 28.1 ± 2.6 | 49.5 ± 11.3 | 24.9 ± 3.7 | 63.4 ± 5.5 | > 250 | – | – | – | – |
| COc1cc2ncnc(Nc3ccc(Br)cc3F)c2cc1OC [HI-P214, 4-(2′-Fluoro-4′-bromophenyl)-amino-6,7-dimethoxyquinazoline] | > 250 | > 250 | > 250 | > 250 | > 250 | > 250 | > 250 | > 250 | – |
| COc1cc2ncnc(Nc3cccc(C(F)(F)F)c3)c2cc1OC [HI-P218, 4-(3′-Trifluoromethylphenyl)-amino-6,7-dimethoxyquinazo-line] | 37 ± 5.8 | 29.9 ± 7.3 | 33.2 ± 3.3 | 37.6 ± 5.2 | 126 ± 5.8 | – | – | – | – |
| COc1cc2ncnc(Nc3ccc(OC(F)(F)F)cc3)c2cc1OC [HI-P219, 4-(4′-Trifluoromethoxylphenyl)-amino-6,7-dimethoxyqui-nazoline] | 22.3 ± 3 | 83.6 ± 6.5 | 41.3 ± 4.4 | 44.2 ± 10.9 | 58.3 ± 3.2 | – | – | – | Apoptosis was induced |
| COc1cc2ncnc(Nc3ccc(F)cc3)c2cc1OC [HI-P221, 4-(4′-Fluorophenyl)-amino-6,7-dimethoxyquinazoline] | 100 ± 4.8 | 28.8 ± 12.7 | 98.7 ± 3.8 | 30.7 ± 7.9 | > 250 | – | – | – | – |
| COc1cc2ncnc(Nc3ccc(C(F)(F)F)cc3)c2cc1OC [HI-P223, 4-(4′-Trifluoromethylphenyl)-amino-6,7-dimethoxyquinazoline] | 39.5 ± 8 | 32.1 ± 3.9 | 40.8 ± 15.1 | 27.6 ± 8.6 | > 250 | – | – | – | – |
| COc1cc2ncnc(Nc3cccc(F)c3)c2cc1OC [HI-P224, 4-(3′-fluorophenyl)amino-6,7-dimethoxyquinazoline] | 20.2 ± 8.1 | 22.4 ± 5.9 | 23.3 ± 7.7 | 58.3 ± 5.8 | > 250 | – | – | – | – |
| COc1cc2ncnc(Nc3ccccc3C(F)(F)F)c2cc1OC [HI-P228, 4-(2′-Trifluoromethylphenyl)-amino-6,7-dimethoxyquinazoline] | 57.3 ± 24.8 | > 250 | 237 ± 4.8 | > 250 | > 250 | – | – | – | – |
| COc1cc2ncnc(Nc3ccc(S(=O)(=O)F)cc3)c2cc1OC [HI-P232, 4-[4′-benzenesulfanilylfluoride]-amino-6,7-dimethoxyquinazoline] | 41.4 ± 6.9 | 208 ± 18.1 | 43.6 ± 2.3 | 70.5 ± 8.2 | 88.9 ± 17.2 | – | – | – | – |
| COc1cc2ncnc(Nc3ccccc3F)c2cc1OC [HI-P264, 4-(2′-Fluorophenyl)-amino-6,7-dimethoxyquinazoline] | 47 ± 19.5 | 53.3 ± 6.7 | 70.9 ± 17.3 | 33.3 ± 7.5 | > 250 | – | – | – | – |
| COc1cc2ncnc(Nc3ccc(C(c4ccc(N)cc4)(C(F)(F)F)C(F)(F)F)cc3)c2cc1OC [HI-P352, 4-{4′-[2″-(4′′′-Aminophenyl)-hexafluoropropyl]phenyl}amino-6,7-dimethoxyquinazoline] | 7.1 ± 1.8 | 65.5 ± 11.2 | 21.8 ± 1.7 | 50.3 ± 14.8 | 72.6 ± 2.5 | – | – | – | – |
| COc1cc2ncnc(Nc3ccc(C(c4cccc(N)c4)(C(F)(F)F)C(F)(F)F)cc3)c2cc1OC [HI-P353] | 6.1 ± 1.4 | 14.5 ± 7.6 | 17.4 ± 1.5 | 14.1 ± 3.3 | 64.9 ± 11.9 | – | – | – | – |
| COc1cc2ncnc(Nc3cccc(OC(F)(F)F)c3)c2cc1OC [HI-P364, 4-(3′-Trifluoromethoxylphenyl)-amino-6,7-dimethoxyquinazoline] | 7.9 ± 1.9 | 27.7 ± 1.2 | 25.3 ± 9.1 | 40.1 ± 8.6 | > 250 | – | – | – | – |
| COc1cc2ncnc(Nc3ccccc3OC(F)(F)F)c2cc1OC [HI-P365, 4-(2′-Trifluoromethoxylphenyl)-amino-6,7-dimethoxyquinazoline] | 86.5 ± 3.4 | > 250 | 111 ± 7.5 | > 250 | > 250 | – | – | – | – |
| COc1cc2ncnc(Nc3cc(C(F)(F)F)cc(C(F)(F)F)c3)c2cc1OC [HI-P366, 4-(3′,5′-Ditrifluoromethylphenyl)-amno-6,7-dimethoxyquinazoline] | 52.8 ± 14 | 55.5 ± 13.2 | 137 ± 10.3 | 61.7 ± 12.1 | > 250 | – | – | – | – |
| COc1cc2ncnc(Nc3ccc(O)c(F)c3)c2cc1OC [HI-P369, 4-(4′-Hydroxyl-3′-fluorophenyl)-amino-6,7-dimethoxyquinazoline] | > 250 | > 250 | > 250 | > 250 | > 250 | – | – | – | – |
| COc1cc2ncnc(Nc3cc(F)c(O)c(F)c3)c2cc1OC [HI-P408, 4-(4′-Hydroxyl-3′,5′-difluorophenyl)-amino6,7-dimethoxy-quinazoline] | 116 ± 17.8 | > 250 | 228 ± 20.8 | > 250 | > 250 | – | – | – | – |
